Measurements taken from PMC11521309, “A novel 4-aminoquinoline chemotype with multistage antimalarial activity and lack of cross-resistance with PfCRT and PfMDR1 mutants” (PLOS Pathogens, 2024).
Where two headings read alike, the source gives them in different places.

Tests used:
[1] = test system: P. falciparum 3D7 ABS parasites; assay: ABS parasite survival assay, 72 h, flow cytometry; assay type: cell-based; details: Plasmodium falciparum
Protocol: (§1) P. falciparum ABS parasites were cultured at 3% hematocrit in human O^+ RBCs in RPMI-1640 media supplemented with 25 mM HEPES, 50 mg/L hypoxanthine, 2 mM L-glutamine, 0.21% sodium bicarbonate, 0.5% (w/v) AlbuMAXII (Invitrogen) and 10 μg/mL gentamycin. Culture flasks were kept in modular incubator chambers (Billups-Rothenberg) in a 5% O2, 5% CO2, and 90% N2 atmosphere at 37°C. Synchronized ring-stage parasites were obtained by two consecutive rounds of treatment with 5% D-sorbitol in 48-hour intervals. […] This was done by exposing cultures at 1% hematocrit and 0.3% parasitemia in 96-well plates in the presence of drugs in a two-fold 10 or 12-point serial dilution in duplicate along with drug-free controls. After a 72-hour incubation, parasite survival was assessed by flow cytometry on an iQue flow cytometer (Sartorius) using SYBR Green and MitoTracker Deep Red FM (Life Technologies) as nuclear stain and vital dye, respectively. Parasite survival was determined as a percentage relative to drug-free control. IC50 values were interpolated from log concentration versus response curves in Prism 9 (GraphPad Prism Software Inc.).

[2] = test system: P. falciparum Dd2 ABS parasites; assay: ABS parasite survival assay, 72 h, flow cytometry; assay type: cell-based; details: Plasmodium falciparum
Protocol: as §1

P. falciparum NF10^NF = test system: P. falciparum NF10^NF; set-up: method as in ref 1 Veiga et al. 2016; details: means ± SEM, N 6; ref 1 Veiga et al. 2016; read-out: IC50 NF10NF; cited from earlier work
P. falciparum Dd2^M343L = test system: P. falciparum Dd2^M343L; set-up: key to Phenotype, Dd2^M343L: S: sensitive; R: resistant; details: cited from earlier work

SMILES | IC50 ([1]; 3D7, ABS parasites, N = 3, read-out: IC50 3D7) | IC50 ([1]; 3D7, CQ-sensitive strain, read-out: IC50 3D7) | IC50 ([1]; 3D7, read-out: IC50 3D7) | IC50 ([2]; DD2, ABS parasites, N = 3, read-out: IC50 Dd2) | IC50 ([2]; DD2, CQ-resistant strain, read-out: IC50 Dd2) | IC50 ([2]; DD2, read-out: IC50 Dd2) | IC50 (P. falciparum NF10^NF) | IC50 (P. falciparum Dd2^M343L; Dd2M343L, mean ± SEM, ref 1 (Ross et al., 2018)) | Phenotype, Dd2^M343L (P. falciparum Dd2^M343L; ref [19],[20],[51])
COc1cc2nccc(Nc3cccc(Oc4ccccc4)c3)c2cc1OC [LDT-623] | 130 ± 10 nM | 127 nM | 126.6 ± 0.1 nM | 300 ± 30 nM | 365 nM | 365 ± 17.5 nM | – | – | –
CCN(CC)CCCC(C)Nc1ccnc2cc(Cl)ccc12 (stereo not drawn) [CQ, chloroquine] | – | – | – | – | – | – | 216 ± 15.3 nM | 41.8 ± 1.9 nM | R
